Test results: PMC6327040, “A novel scaffold for EGFR inhibition: Introducing N-(3-(3-phenylureido)quinoxalin-6-yl) acrylamide derivatives” (Scientific Reports, 2019)

Assays:
[1] = test system: patient-derived tumor cell panel; assay: Patient-derived tumor cell panel screening (Oncotest); format: cell-based
Procedure: (§1) Based on this premise, the inhibitory activity of compounds 7a-m towards a patient-derived tumor cell panel[49] was evaluated, using a single screening concentration of 10 μM. […] In fact, it is worth mentioning that, although the data observed in a cellular assay have no direct correlation to EGFR enzymatic tests, this phenomenon is not unusual and is related to the nature of the assays itself. In enzymatic assays there is no influence of membrane permeability issues, while in cell viability assays compounds must penetrate the cell membrane and resist the cellular environment for long enough for the ligand-receptor interaction to occur and to trigger the biological activity.

[2] = test system: BXF 1218L; assay: PD tumor cell line growth inhibition; format: cell-based; settings: Bladder, read-out: % inhibition (cellular growth inhibition related to negative control)
Procedure: as §1

[3] = test system: BXF T24; assay: PD tumor cell line growth inhibition; format: cell-based; settings: Bladder, read-out: % inhibition (cellular growth inhibition related to negative control)
Procedure: as §1

[4] = test system: CNXF A172; assay: PD tumor cell line growth inhibition; format: cell-based; settings: Homo sapiens, A 172, Glioblastoma, read-out: % inhibition (cellular growth inhibition related to negative control)
Procedure: as §1

[5] = test system: CXF Colo205; assay: PD tumor cell line growth inhibition; format: cell-based; settings: Homo sapiens, COLO 205, Colon, read-out: % inhibition (cellular growth inhibition related to negative control)
Procedure: as §1

[6] = test system: CXF DIFI; assay: PD tumor cell line growth inhibition; format: cell-based; settings: Homo sapiens, Colon, EGFRdel-exon19 expressed, read-out: % inhibition (cellular growth inhibition related to negative control)
Procedure: as §1

[7] = test system: CXF HCT116; assay: PD tumor cell line growth inhibition; format: cell-based; settings: Homo sapiens, HCT-116, Colon, read-out: % inhibition (cellular growth inhibition related to negative control)
Procedure: as §1

[8] = test system: CXF RKO; assay: PD tumor cell line growth inhibition; format: cell-based; settings: Colon, read-out: % inhibition (cellular growth inhibition related to negative control)
Procedure: as §1

[9] = test system: CXF SW620; assay: PD tumor cell line growth inhibition; format: cell-based; settings: Homo sapiens, SW-620, Colon, read-out: % inhibition (cellular growth inhibition related to negative control)
Procedure: as §1

[10] = test system: GXA MKN45; assay: PD tumor cell line growth inhibition; format: cell-based; settings: Homo sapiens, MKN-45, Stomach, read-out: % inhibition (cellular growth inhibition related to negative control)
Procedure: as §1

[11] = test system: GXF 251L; assay: PD tumor cell line growth inhibition; format: cell-based; settings: Stomach, EGFRdel-exon19 expressed, read-out: % inhibition (cellular growth inhibition related to negative control)
Procedure: as §1

[12] = test system: LIXF 575L; assay: PD tumor cell line growth inhibition; format: cell-based; settings: Liver, read-out: % inhibition (cellular growth inhibition related to negative control)
Procedure: as §1

[13] = test system: LXFA 629L; assay: PD tumor cell line growth inhibition; format: cell-based; settings: Lung, read-out: % inhibition (cellular growth inhibition related to negative control)
Procedure: as §1

[14] = test system: LXFA NCI-H1975; assay: PD tumor cell line growth inhibition; format: cell-based; settings: Homo sapiens, Lung, read-out: % inhibition (cellular growth inhibition related to negative control)
Procedure: as §1

[15] = test system: LXFA PC9; assay: PD tumor cell line growth inhibition; format: cell-based; settings: Lung, EGFRdel-exon19 expressed, read-out: % inhibition (cellular growth inhibition related to negative control)
Procedure: as §1

[16] = test system: LXFL 529L; assay: PD tumor cell line growth inhibition; format: cell-based; settings: Lung, EGFR overexpressed, read-out: % inhibition (cellular growth inhibition related to negative control)
Procedure: as §1

[17] = test system: LXFL H460; assay: PD tumor cell line growth inhibition; format: cell-based; settings: Homo sapiens, NCI-H460, Lung, read-out: % inhibition (cellular growth inhibition related to negative control)
Procedure: as §1

[18] = test system: MAXF 401NL; assay: PD tumor cell line growth inhibition; format: cell-based; settings: Breast, read-out: % inhibition (cellular growth inhibition related to negative control)
Procedure: as §1

[19] = test system: MAXF MCF7; assay: PD tumor cell line growth inhibition; format: cell-based; settings: Homo sapiens, Breast, read-out: % inhibition (cellular growth inhibition related to negative control)
Procedure: as §1

[20] = test system: MAXF MDA231; assay: PD tumor cell line growth inhibition; format: cell-based; settings: Homo sapiens, MDA-MB-231, Breast, read-out: % inhibition (cellular growth inhibition related to negative control)
Procedure: as §1

[21] = test system: MEXF 1539L; assay: PD tumor cell line growth inhibition; format: cell-based; settings: Melanoma, read-out: % inhibition (cellular growth inhibition related to negative control)
Procedure: as §1

[22] = test system: MEXF 1737l; assay: PD tumor cell line growth inhibition; format: cell-based; settings: Melanoma, read-out: % inhibition (cellular growth inhibition related to negative control)
Procedure: as §1

[23] = test system: MEXF 276L; assay: PD tumor cell line growth inhibition; format: cell-based; settings: Homo sapiens, MEXF276L, Melanoma, read-out: % inhibition (cellular growth inhibition related to negative control)
Procedure: as §1

[24] = test system: OVXF 899L; assay: PD tumor cell line growth inhibition; format: cell-based; settings: Ovary, read-out: % inhibition (cellular growth inhibition related to negative control)
Procedure: as §1

[25] = test system: PAXF 1657l; assay: PD tumor cell line growth inhibition; format: cell-based; settings: Pancreas, read-out: % inhibition (cellular growth inhibition related to negative control)
Procedure: as §1

[26] = test system: PAXF 546L; assay: PD tumor cell line growth inhibition; format: cell-based; settings: Pancreas, read-out: % inhibition (cellular growth inhibition related to negative control)
Procedure: as §1

[27] = test system: PRXF DU145; assay: PD tumor cell line growth inhibition; format: cell-based; settings: Homo sapiens, DU-145, Prostate, read-out: % inhibition (cellular growth inhibition related to negative control)
Procedure: as §1

[28] = test system: RXF 486L; assay: PD tumor cell line growth inhibition; format: cell-based; settings: Kidney, read-out: % inhibition (cellular growth inhibition related to negative control)
Procedure: as §1

[29] = test system: RXF 786-O; assay: PD tumor cell line growth inhibition; format: cell-based; settings: Homo sapiens, 786-0, Kidney, read-out: % inhibition (cellular growth inhibition related to negative control)
Procedure: as §1

[30] = test system: SXF1301L; assay: PD tumor cell line growth inhibition; format: cell-based; settings: Sarcoma, read-out: % inhibition (cellular growth inhibition related to negative control)
Procedure: as §1

[31] = test system: UXF 1138L; assay: PD tumor cell line growth inhibition; format: cell-based; settings: Uterus, read-out: % inhibition (cellular growth inhibition related to negative control)
Procedure: as §1

[32] = molecular target: EGFRwt (Homo sapiens, UniProt P00533); assay: HTRF KinEASE-TK biochemical assay (TR-FRET), EGFRwt
EGFRwt, sequence (P00533 25-1210): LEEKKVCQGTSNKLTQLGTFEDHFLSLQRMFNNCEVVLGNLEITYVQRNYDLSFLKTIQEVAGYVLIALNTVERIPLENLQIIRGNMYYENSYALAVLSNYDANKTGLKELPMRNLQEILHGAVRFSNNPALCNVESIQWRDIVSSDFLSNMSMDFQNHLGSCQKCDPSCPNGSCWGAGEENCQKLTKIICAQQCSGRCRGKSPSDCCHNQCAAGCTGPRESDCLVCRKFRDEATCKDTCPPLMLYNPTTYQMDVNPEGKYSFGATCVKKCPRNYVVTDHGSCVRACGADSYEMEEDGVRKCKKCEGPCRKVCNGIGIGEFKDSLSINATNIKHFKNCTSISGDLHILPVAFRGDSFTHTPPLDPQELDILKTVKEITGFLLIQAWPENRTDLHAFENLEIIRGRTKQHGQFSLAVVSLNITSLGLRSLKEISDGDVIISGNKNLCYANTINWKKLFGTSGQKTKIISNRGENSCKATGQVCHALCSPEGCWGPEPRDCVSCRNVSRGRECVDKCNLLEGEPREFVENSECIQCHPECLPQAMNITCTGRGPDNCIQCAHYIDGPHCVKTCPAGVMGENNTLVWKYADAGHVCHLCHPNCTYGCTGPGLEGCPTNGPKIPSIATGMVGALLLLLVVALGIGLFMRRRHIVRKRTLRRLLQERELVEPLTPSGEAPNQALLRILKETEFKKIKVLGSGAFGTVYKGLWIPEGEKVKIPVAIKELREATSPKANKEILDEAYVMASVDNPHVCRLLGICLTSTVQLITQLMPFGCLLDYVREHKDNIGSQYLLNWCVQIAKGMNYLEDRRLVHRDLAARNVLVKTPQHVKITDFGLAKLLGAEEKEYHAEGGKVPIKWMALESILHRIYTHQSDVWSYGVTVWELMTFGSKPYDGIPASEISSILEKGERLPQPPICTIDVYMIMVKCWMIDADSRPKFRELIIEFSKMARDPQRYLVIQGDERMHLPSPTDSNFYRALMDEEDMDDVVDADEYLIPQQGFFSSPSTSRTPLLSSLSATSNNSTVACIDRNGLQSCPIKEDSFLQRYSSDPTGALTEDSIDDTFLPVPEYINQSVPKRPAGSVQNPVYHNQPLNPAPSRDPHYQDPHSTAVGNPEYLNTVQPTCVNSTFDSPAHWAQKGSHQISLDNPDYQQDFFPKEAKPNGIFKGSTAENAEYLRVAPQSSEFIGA
Procedure: (§2) An artificial substrate peptide (TK-substrate from Cisbio) was phosphorylated by EGFR. After completion of the reaction (reaction times: 25 min for wild-type, 15 min for L858R, 20 min for T790M/L858R), the reaction was stopped by addition of a buffer containing EDTA as well as, an anti-phosphotyrosine antibody labeled with europium cryptate and streptavidin labeled with the fluorophore XL665. FRET between europium cryptate and XL665 was measured after an additional hour of incubation to quantify the phosphorylation of the substrate peptide. […] Kinase and inhibitor were preincubated for 30 min (EGFR-wt) and 1 h (EGFR-L858R and EGFR-L858R/T790M) before the reaction was started by addition of ATP and substrate peptide. An EnVision multimode plate reader (Perkin Elmer) was used to measure the fluorescence of the samples at 620 nm (Eu-labeled antibody) and 665 nm (XL665 labeled streptavidin) 50 μs after excitation at 320 nm. The quotient of both intensities for reactions made with eight different inhibitor concentrations was then analyzed using the Quattro Software Suite for IC50-determination. Each reaction was performed in duplicate, and at least three independent determinations of each IC50 were made.

[33] = molecular target: EGFRL858R (Homo sapiens, UniProt P00533, L858R); assay: HTRF KinEASE-TK biochemical assay (TR-FRET), EGFR-L858R
EGFRL858R, sequence (P00533 25-1210 L858R): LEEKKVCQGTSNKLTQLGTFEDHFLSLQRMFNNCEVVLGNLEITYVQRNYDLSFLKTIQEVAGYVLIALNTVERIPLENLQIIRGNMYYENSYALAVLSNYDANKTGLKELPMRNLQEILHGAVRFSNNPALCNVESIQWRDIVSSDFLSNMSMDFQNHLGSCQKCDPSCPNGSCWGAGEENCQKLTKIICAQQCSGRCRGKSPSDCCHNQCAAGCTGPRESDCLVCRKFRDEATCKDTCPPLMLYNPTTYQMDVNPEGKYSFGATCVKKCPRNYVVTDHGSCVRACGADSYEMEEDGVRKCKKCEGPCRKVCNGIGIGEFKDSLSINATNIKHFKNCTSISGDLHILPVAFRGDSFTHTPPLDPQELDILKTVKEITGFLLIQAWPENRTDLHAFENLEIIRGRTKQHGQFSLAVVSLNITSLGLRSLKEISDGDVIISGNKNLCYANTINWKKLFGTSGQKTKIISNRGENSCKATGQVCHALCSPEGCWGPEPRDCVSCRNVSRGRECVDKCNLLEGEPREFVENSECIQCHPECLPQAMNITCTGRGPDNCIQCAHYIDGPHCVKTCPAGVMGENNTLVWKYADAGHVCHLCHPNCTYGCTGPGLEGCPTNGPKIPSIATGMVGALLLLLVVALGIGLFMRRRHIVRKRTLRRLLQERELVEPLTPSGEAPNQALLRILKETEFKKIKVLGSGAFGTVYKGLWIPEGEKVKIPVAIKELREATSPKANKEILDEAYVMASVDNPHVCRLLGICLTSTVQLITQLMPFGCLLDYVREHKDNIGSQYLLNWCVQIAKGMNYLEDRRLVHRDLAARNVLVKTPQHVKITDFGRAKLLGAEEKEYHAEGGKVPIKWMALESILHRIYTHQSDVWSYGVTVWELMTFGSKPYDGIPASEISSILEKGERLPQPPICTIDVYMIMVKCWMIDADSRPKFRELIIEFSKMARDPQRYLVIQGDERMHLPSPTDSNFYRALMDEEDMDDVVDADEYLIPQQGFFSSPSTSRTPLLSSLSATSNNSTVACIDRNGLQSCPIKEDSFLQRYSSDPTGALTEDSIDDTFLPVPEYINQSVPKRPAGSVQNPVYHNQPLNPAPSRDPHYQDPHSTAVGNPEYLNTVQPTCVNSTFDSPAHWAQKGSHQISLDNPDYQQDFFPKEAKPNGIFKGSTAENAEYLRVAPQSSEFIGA
Procedure: as §2

[34] = molecular target: EGFRL858R/T790M (Homo sapiens, UniProt P00533, L858R/T790M); assay: HTRF KinEASE-TK biochemical assay (TR-FRET), EGFR-L858R/T790M
EGFRL858R/T790M, sequence (P00533 25-1210 T790M/L858R): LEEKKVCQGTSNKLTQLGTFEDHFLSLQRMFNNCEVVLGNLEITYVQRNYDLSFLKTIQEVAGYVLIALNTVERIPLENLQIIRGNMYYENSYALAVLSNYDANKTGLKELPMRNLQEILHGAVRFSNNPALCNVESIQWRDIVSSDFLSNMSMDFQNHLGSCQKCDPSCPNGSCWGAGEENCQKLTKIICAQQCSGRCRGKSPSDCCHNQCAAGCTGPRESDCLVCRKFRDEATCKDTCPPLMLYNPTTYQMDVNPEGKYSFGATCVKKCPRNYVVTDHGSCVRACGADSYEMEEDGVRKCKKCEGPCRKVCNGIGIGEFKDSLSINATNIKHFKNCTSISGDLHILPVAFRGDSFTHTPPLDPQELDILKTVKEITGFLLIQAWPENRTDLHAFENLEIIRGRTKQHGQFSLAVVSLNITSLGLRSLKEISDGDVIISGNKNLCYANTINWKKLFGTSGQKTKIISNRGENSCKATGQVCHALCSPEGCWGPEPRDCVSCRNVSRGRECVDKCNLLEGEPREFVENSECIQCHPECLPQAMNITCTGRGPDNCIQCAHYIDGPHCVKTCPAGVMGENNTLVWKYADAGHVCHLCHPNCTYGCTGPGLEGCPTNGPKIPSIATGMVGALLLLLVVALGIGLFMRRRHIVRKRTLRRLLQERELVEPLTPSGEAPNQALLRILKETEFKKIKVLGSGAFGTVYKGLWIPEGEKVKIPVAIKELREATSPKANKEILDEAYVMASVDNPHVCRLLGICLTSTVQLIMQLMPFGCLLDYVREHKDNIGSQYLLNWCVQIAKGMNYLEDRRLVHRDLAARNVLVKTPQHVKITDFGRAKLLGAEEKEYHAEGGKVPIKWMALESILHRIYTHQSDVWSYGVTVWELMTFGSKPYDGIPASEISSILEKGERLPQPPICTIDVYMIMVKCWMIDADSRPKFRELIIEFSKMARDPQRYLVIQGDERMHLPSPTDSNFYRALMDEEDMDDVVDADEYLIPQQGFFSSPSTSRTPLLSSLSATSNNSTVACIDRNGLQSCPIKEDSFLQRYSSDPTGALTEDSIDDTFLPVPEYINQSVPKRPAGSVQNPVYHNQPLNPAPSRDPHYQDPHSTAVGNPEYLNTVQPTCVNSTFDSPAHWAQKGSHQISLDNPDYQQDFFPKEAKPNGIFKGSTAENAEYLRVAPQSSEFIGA
Procedure: as §2

With `C=CC(=O)Nc1ccc2ncc(NC(=O)Nc3ccccc3)nc2c1` [Compound 7h, N-(3-(3-phenylureido)quinoxalin-6-yl)acrylamide] the inhibition at 10 µM ([1]; 10 μM, GXF 251L, CXF DiFi, LXFA PC9, LXFL 529L and LXFA NCI-H1975 cell lines, read-out: growth inhibition effect) was 55 to 77%, the “tumor cell lines' growth inhibition / cytotoxic activity (in words)” value ([1]; single screening concentration of 10 μM) was “important cytotoxic activity” and the inhibition at 10 µM [2] was 84%. The inhibition at 10 µM [3] was 76%, the inhibition at 10 µM [4] was 86% and the inhibition at 10 µM [5] was 56%. For the same compound, the inhibition at 10 µM [6] was 77%, the inhibition at 10 µM [7] was 92% and the inhibition at 10 µM [8] was 82%. The inhibition at 10 µM [9] was 82%, the inhibition at 10 µM [10] was 8% and the inhibition at 10 µM [11] was 55%. The inhibition at 10 µM [12] was 40%, the inhibition at 10 µM [13] was 76% and the inhibition at 10 µM [14] was 68%. It also gave an inhibition at 10 µM [15] of 75%, an inhibition at 10 µM [16] of 74% and an inhibition at 10 µM [17] of 33%. The inhibition at 10 µM [18] was 72%, the inhibition at 10 µM [19] was 76% and the inhibition at 10 µM [20] was 67%. For the same compound, the inhibition at 10 µM [21] was 93%, the inhibition at 10 µM [22] was 15% and the inhibition at 10 µM [23] was 88%. It also gave an inhibition at 10 µM [24] of 87%, an inhibition at 10 µM [25] of 89% and an inhibition at 10 µM [26] of 58%. It also gave an inhibition at 10 µM [27] of 91%, an inhibition at 10 µM [28] of 86% and an inhibition at 10 µM [29] of 80%. For the same compound, the inhibition at 10 µM [30] was 89%, the inhibition at 10 µM [31] was 91% and the IC50 [32] was 25 ± 4 nM. For the same compound, the IC50 [33] was 18 ± 3 nM, the IC50 [34] was 1680 ± 1510 nM and the “inhibitory activity on EGFRL858R/T790M (in words)” value ([34]; enzymatic in vitro determination) was “weak inhibition”.
